Results as given in US20260218210A1, “ENGINEERED BACTERIA FOR CELLULAR BARRIER M[…] PROTECTION” (The Trustees of Columbia University in the City of New York, priority 2023, published 2026).

Legend:
[1] = tested on: acute DSS colitis in NFD/FDD fed mice; experiment: Acute DSS colitis in mice fed fiber-deficient (no fiber) diet; assay type: in vivo, mouse; details: five days DSS colitis
[2] = tested on: acute DSS colitis in NFD/FDD fed mice; experiment: as above; assay type: in vivo, mouse
Experimental: (§1) Mice and diets C57BL/6J and Il10^−/− mice were purchased from Jackson Laboratory. Animals were purchased from maximum barrier rooms and maintained in high barrier animal rooms at Columbia University. All mice were maintained under specific-pathogen-free (SPF) conditions for the duration of the experiments. All experiments were performed under IACUC approved guidelines. To control for microbiota and cage effects, mice were shuffled between cages before the start of each experiment and randomly assigned to each group. All experiments were performed with gender and age (8-12 weeks at start of experiment) matched mice. Animals were maintained on normal diet (PicoLab Rodent Diet 20, 5053) until start of experiments and then switched to fiber-deficient diet (Teklad Custom Diet, TD.00278) or continued on ND as indicated. ND contained 21% protein, 53.4% carbohydrates, 5% fat, 5% fiber and 4 kcal/g. FDD contained 19.3% protein, 64.8% carbohydrates, 5.1% fat and no fiber, overall the diet provides 3.9 kcal/g.
(§2) DSS colitis and GLP-1 modulating therapies For induction of acute DSS colitis, between 0.5% to 6% w/v dextran sulfate sodium (DSS, colitis grade, MPbio) was supplemented in drinking water for five days. Drinking water was furthermore enriched with 2% w/v sucrose for all groups. Mice were switched to FDD seven days prior to DSS supplementation or maintained on ND during course of experiment. As indicated, FDD mice were i.p. injected with 0.1 μg/g GLP-1 receptor agonist (Exendin-4, AS-24463, AnaSpec) or 0.4 μg/g GLP-1 receptor antagonist (Exendin-9-39, AS-24467, AnaSpec) in 100 μl PBS every day starting one day before start of DSS. Additionally, mice were orally gavaged with either 10^10 CFU E. coli Nissle (EcN) or 10^10 CFU E. coli Nissle-HldSE (EcN-HldSE) every day starting one day prior to DSS supplementation. Of note, tissue samples for RNA-sequencing analysis are derived from mice either gavaged with EcN (control and GLP-1 receptor agonist groups) or EcN-HldSE (EcN-HldSE and GLP-1 receptor antagonist groups). Mice were monitored daily for changes in body weight. After five days, mice were euthanized for blood and tissue sampling.
Histological analyses The colonic tissue was carefully rinsed with PBS to remove fecal matter. Colon and small intestine was fixated in 10% formalin for >24 hours and embedded in paraffin. 5 μm section were stained with H&E, Alcian Blue and Immunohistochemistry (IHC) staining for GLP-1 (GLP-1 polyclonal antibody, PA5-79303, Invitrogen). A pathologist assessed and scored H&E stained slides for colitis grading.
Plating for liver colony forming units (CFU) For bacterial extraction from liver tissue, livers were first weighed and then transferred into sterile stainless steel microvials (Biospec #2007) containing two stainless steel beads (6.35 mm, Biospec #11079635SS) and capped with silicone rubber caps (Biospec #2008). The vials were subsequently filled with 500 μL of sterile phosphate-buffered saline (PBS), and the tubes were placed on ice to prevent bacterial growth. The samples were homogenized using a Mini-BeadBeater-16 (BioSpec) with three cycles of 30 seconds at 4° C. After extraction, the samples were diluted as needed in PBS, and 100 μL of the diluted solution was plated onto Luria-Bertani (LB) agar plates (2% agar). The plates were thoroughly dried and incubated at 37° C. overnight. Colony-forming units (CFU) were counted the following day and normalized to tissue weight.
Plasma analyses GLP-1 and pro-inflammatory cytokine measurements were performed from plasma samples. After euthanasians, blood was drawn from mice with needles coated with EDTA to stop coagulation. Blood samples were pelleted by centrifugation for 10 min at 15000 rpm at 4° C. Supernatant was transferred to a new tube, snap frozen and stored at −80° C. GLP-1 ELISA (GLP-1 Multispecies ELISA kit, BMS2194, Invitrogen) and LEGENDplex Mouse Inflammation Panel (740446, BioLegend) were performed according to manufacturer protocol. […]

[3] = tested on: colon tissue gene expression; experiment: RNA-sequencing of colon tissue of FDD mice during DSS colitis; assay type: in vivo, mouse
Experimental: as §2
RNA colonic transcriptomics For mRNA sequencing using the Illumina platform, total RNA was first extracted from tissue using TRItol reagent. The extracted RNA was quantified using Bioanalyzer to ensure high-quality RNA (RIN>7) for further library preparation. Poly-A mRNA was isolated using the Dynabeads™ mRNA Purification Kit (Thermo Fisher, #61006), followed by fragmentation with the NEBNext Ultra II RNA Library Prep Kit (New England Biolabs, #E7770) at 94° C. for 8 minutes. First-strand cDNA synthesis was performed using SuperScript IV Reverse Transcriptase (Thermo Fisher, #18090050), followed by second-strand cDNA synthesis. […] Libraries were validated for quality and size distribution using 2% agarose gel and enriched using size selection beads to eliminate any cDNA below 350 bp, and quantified using a Qubit 4 Fluorometer (Thermo Fisher, #Q33226). Sequencing was performed on an Illumina NextSeq550 platform using paired-end 150 bp reads high output.
Post-sequencing, FastQC (v0.11.9) was employed to assess raw read quality, evaluating metrics such as per-base sequence quality (Q30 or higher), GC content, and potential adapter contamination. […] Reads alignment and transcripts quantification of gene expression were done using Kallisto (v0.46.1) and DESeq2 (v1.30.1) was then used for differential expression analysis, incorporating normalization and variance-stabilizing transformation to account for differences in sequencing depth and library size. […]

[4] = tested on: acute DSS colitis in NC/ND fed mice; experiment: Acute DSS colitis in mice fed normal chow / normal diet; assay type: in vivo, mouse; details: five days DSS colitis
Experimental: as §1, §2
Plating for liver colony forming units (CFU) For bacterial extraction from liver tissue, livers were first weighed and then transferred into sterile stainless steel microvials (Biospec #2007) containing two stainless steel beads (6.35 mm, Biospec #11079635SS) and capped with silicone rubber caps (Biospec #2008). […] Colony-forming units (CFU) were counted the following day and normalized to tissue weight.
Here, mice with low fiber diets were treated with DSS for […] with or without the engineered Nissle HldSE (FIG. 3A) Treatment with Nissle HldSE improved barrier function measured based on infiltrating gut bacteria in liver (Liver CFU; FIG. 3C). […]

IEL γδ (gd) T cells = experiment: IEL γδ T cell IL-17A production and γδ T cell depletion in DSS colitis of NFD fed mice; assay type: in vivo, mouse
Excerpt: EcN or EcN HldSE (5×10^9 CFU/mouse) was gavaged daily starting three days prior to DSS administration. gd T cells were depleted by administration of neutralizing antibodies i.p. every other day. […] EcN or EcN HldSE (5×10^9 CFU/mouse) was gavaged daily starting three days prior to DSS administration. gd T cells were depleted by administration of neutralizing antibodies i.p. every other day. N=3-5 mice/group, one experiment. […] EcN or EcN HldSE (5×10^9 CFU/mouse) was gavaged daily starting three days prior to DSS administration. gd T cells were depleted by administration of neutralizing antibodies i.p. every other day. N=3-5 mice/group, one experiment.

GLP-1 release = details: cited from earlier work
[5] = FDD mice, five days DSS colitis, agonist 0.1 μg/g i.p. daily or 10^10 CFU gavage daily
[6] = FDD mice, DSS colitis, EcN-HldSE treatment plus antagonist injection

Substance: Exendin-4 [GLP-1 receptor agonist]
- CFU levels in the liver (bacteria dissemination into the liver) [1]: significantly reduced
- L-cell numbers (GLP-1 staining) in colon ([2]; FDD mice during DSS colitis): increase
- goblet cell numbers (Alcian Blue staining) in colon ([2]; FDD mice during DSS colitis): remained unchanged
- histological colitis score ([2]; FDD mice, DSS colitis): improved
- colitis outcome in dysbiotic mice ([2]; FDD mice, DSS colitis, figure headlines FIGS. 10, 11): ameliorate
- circulating (pro-)inflammatory cytokines (TNF-α, IL-1α, IL-6, MCP-1) ([2]; FDD mice, five days DSS colitis, plasma): lower
- colon shortening [2, 5]: less
- weight loss [2, 5]: reduced
- genes linked to ribosome biogenesis, cell cycle and DNA replication and inflammatory signaling ([3]; colon of FDD mice during colitis): downregulated
- DEGs commonly upregulated in the colon with EcN-HldSE and the GLP-1 receptor agonist ([3]; colon of FDD mice, DSS colitis, versus EcN control): ~50%
- genes associated with homeostasis and recovery phases (GSEA) ([3]; colon of FDD mice, acute colitis, DSS colitis time-series dataset): enrichment
- genes involved in lipid metabolism, tight junctions and epithelial structure maintenance ([3]; over-representation analysis, colon of FDD mice during DSS colitis): upregulation

Substance: Exendin-9-39 [GLP-1 receptor antagonist]
- bacterial dissemination into the liver [4]: higher
- colon shortening [4]: greater
- disease severity [4]: exacerbated
- weight loss [4]: more
- protective effects of the engineered probiotic ([2]; FDD mice, DSS colitis, EcN-HldSE treatment plus antagonist 0.4 μg/g i.p. daily): abolished
- colon length [2, 6]: shorter
- level of circulating pro-inflammatory cytokines [2, 6]: elevated
- number of bacteria in the liver [2, 6]: drastically increased
- weight loss [2, 6]: severe

Substance: MAADIISTIGDLVKWIIDTVNKFKK [HldSE]
- IL-17A production by γδ T cells (IEL γδ (gd) T cells; IEL γδ T cells after 6 days of DSS treatment of NFD fed mice): upregulation
- efficacy of the peptide after depletion of γδ T cells (IEL γδ (gd) T cells; experimental depletion of γδ T cells, NFD fed mice, DSS): notable, albeit not exhaustive, diminishment
- GLP-1 release in vitro (GLP-1 release): induce
